US20240293367A1, “METHODS OF TREATING DISORDERS WITH A […]” (Cybin IRL Limited, priority 2023, published 2024)
Values joined by “and” are separate entries in the source; they are usually repeats but may differ in a detail not shown here. Identical values can stand only once. Like-named read-outs stand apart in the source and are kept apart here.

Experiment: Phase I/IIa clinical PK of oral psilocin-d10, plasma, noncompartmental analysis (Cohorts 1-6)
Assay type: in vivo, human
Conditions: for AUC(0-inf): read-out: AUC0-inf Mean (SD)
Method: Phase I/IIa, Randomized, Double-Blind, Placebo-Controlled Study which assesses the safety, tolerability, pharmacokinetics, and pharmacodynamics of multiple ascending oral doses of psilocin-d10 in participants with and without MDD (ClinicalTrials.gov Identifier: NCT05385783). All subjects receiving study medication in Cohorts 1-6 received oral psilocin-d10 powder in solution (0.1M citric acid+Tang orange drink, 30 mL dose in a dose cup) and subjects receiving placebo received a similar volume of Tang orange drink without the psilocin-d10 study drug. All subjects receiving study medication in the relative bioavailability (BA) cohort received powder-filled capsules containing psilocin-d10 benzenesulfonate salt by ingestion with approximately 240 mL room temperature water, or oral psilocin-d10 powder in solution (0.1M citric acid+Tang orange drink, 30 mL dose in a dose cup) in a cross-over design. Psilocin-d10 for the powder in solution dosage form was manufactured by Patheon Pharma Services, with an isotopic purity of 79.89%. Psilocin-d10 benzenesulfonate salt for the powder-filled capsule dosage form was manufactured by Patheon Pharma Services, with an isotopic purity of 85.20%.
Cohorts 1, 4, 5, and 6 of the study was comprised of participants with MDD. Cohorts 2, 3, and the relative BA cohort of the study were comprised of normal healthy volunteers (NHV). […] MDD participants had been on a stable dose of antidepressant medication for at least one month prior to screening with an inadequate response to that antidepressant medication as judged by the Investigator, and continued to receive their prescribed antidepressant throughout the course of the study.
Cohort 1. For Cohort 1, 2 sentinel subjects were randomized and dosed, including 1 subject who received a psilocin-d10 1 mg oral dose and 1 subject who received a placebo dose. After the sentinel subjects were dosed, an additional 2 subjects were dosed, including a replacement subject for one of the sentinel subjects who withdrew consent and one additional subject. In total, four Cohort 1 subjects received a first dose of study medication on Day 1, and 3 subjects received a second dose of study medication on Day 22. For the first dose, 2 subjects received an active psilocin-d10 1 mg dose and 2 subjects received placebo. For the second dose, 3 subjects received an active psilocin-d10 1 mg dose.
Cohort 2. For Cohort 2, 4 subjects were randomized and dosed on Day 1 (2 subjects on one day, 2 subjects on the next day), including 3 subjects who received a psilocin-d10 3 mg oral dose and 1 subject who received a placebo dose. These same 4 subjects were again dosed on Day 8 (2 subjects on one day, 2 subjects on the next day), with all 4 subjects receiving a psilocin-d10 8 mg oral dose (note the actual washout was 11 days between doses).
Cohort 3. For Cohort 3 Day 1, 4 subjects were randomized and dosed on Day 1 (2 subjects on one day, 2 subjects on the next day), including 3 subjects who received a psilocin-do 8 mg oral dose and 1 subject who received a placebo dose. […] Another subject was dosed and left the study after the 2-hour PK sampling and has limited PK samples available for analysis from 0 to 2 hours—this subject's PK data has thus been excluded from the analysis presented hereinafter. For Cohort 3 Day 8, 3 subjects were dosed on Day 8 with a psilocin-d10 10 mg dose (2 sentinel subjects were dosed on one day, 1 non-sentinel subject was dosed on the next day).
Cohorts 4 and 5. For Cohorts 4 and 5, 12 participants each (24 participants total) were randomized in a 3:1 ratio to receive 12 mg of psilocin-d10 or matched placebo in a single dosing session on Day 1. Following a 21-day interval, all participants received a dose of 12 mg psilocin-d10 on Day 22 (second dose for participants originally randomized to psilocin-d10, first dose for participants randomized to placebo), and were followed to Day 42.
Cohort 6. […]

In the case of `[2H]C([2H])([2H])N(C([2H])([2H])[2H])C([2H])([2H])C([2H])([2H])c1c[nH]c2cccc(O)c12` [psilocin-d10, 3-(2-(bis(methyl-d3)amino)ethyl-1,1,2,2-d4)-1H-indol-4-ol], the “CL/F Mean (SD)” value (1 mg oral, Cohort 1 MDD, Day 1 and Day 22 pooled) is reported as 101.08 (18.94) L/h, the “CL/F Mean (SD)” value (3 mg oral, Cohort 2 NHV, Day 1) is reported as 85.22 (11.21) L/h and the “Cmax Mean (SD)” value (8 mg oral, Cohorts 2 and 3 NHV, Day 1 and Day 8 pooled, 2 subjects excluded) is reported as 15.00 (4.85) ng/ml and 15.00^3 ng/ml. For the same compound, the “CL/F Mean (SD)” value (8 mg oral, Cohorts 2 and 3 NHV, pooled) was 97.56 (31.21) L/h, the “AUC0-24 Mean (SD)” value (8 mg oral, Cohorts 2 and 3 NHV, pooled, 2 subjects excluded) was 83.98 (21.46) h*ng/mL and 83.98^3 h*ng/mL and the “CL/F Mean (SD)” value (10 mg oral, Cohort 3 NHV, Day 8) was 104.7 (40.25) L/h. For the same compound, the “CL/F Mean (SD)” value (12 mg oral, Cohort 4 MDD, Day 1 and Day 22) was 85.32 (35.41) L/h, the “CL/F Mean (SD)” value (12 mg oral, Cohort 5 MDD, Day 1 and Day 22) was 91.95 (25.38) L/h and the “CL/F Mean (SD)” value (12 mg oral, Cohorts 4 and 5 MDD, Day 1 and Day 22) was 88.72 (30.45) L/h. For the same compound, the “CL/F Mean (SD)” value (16 mg oral, Cohort 6 MDD, all subjects incl. 3 with emesis) was 128.11 (83.50) L/h, the “mean clearance (CL/F)” value (16 mg, 18 doses, no emesis) was ~107.2 L/h and the “Observed Mean Cmax” value (16 mg, Cohort 6, N = 18, excluding 3 doses with vomiting postdose) was 20.73^2 ng/mL. For the same compound, the “fold increase in mean Cmax, 16 mg (18 doses, no emesis) compared to 12 mg” value (1.33-fold increase in dose) was ~1.1 fold, the “fold increase in mean AUC, 12 mg compared to 8 mg” value (1.5-fold increase in dose) was 1.7 to 1.8 fold and the “fold increase in mean Cmax, 12 mg compared to 8 mg” value (1.5-fold increase in dose) was ~1.2 fold. The “mean Cmax, fold higher, 8 mg dose compared to 3 mg dose” value (2.67-fold increase in dose) was 2.45 fold, the “mean AUC0-24, AUClast and AUC0-inf, fold higher, 8 mg compared to 1 mg” value (8-fold increase in dose) was 8.1 to 8.3 fold and the “mean Cmax, fold higher, 8 mg dose compared to 1 mg dose” value (8-fold increase in dose) was 8.6 fold. For the same compound, the “fold increase in mean AUC, 16 mg (18 doses, no emesis) compared to 12 mg” value (human, plasma, oral) was ~1.1 fold, the “mean AUC0-24, AUClast and AUC0-inf higher for 10 mg compared to 8 mg” value (human, plasma, oral) was ~20% and the “mean AUC0-24, AUClast and AUC0-inf, fold higher, 3 mg compared to 1 mg” value (human, plasma, oral) was 3.4 to 3.5 fold. For the same compound, the “mean Cmax lower for 10 mg dose cohort compared to 8 mg dose cohort” value (human, plasma, oral) was ~10%, the “mean Cmax, fold higher, 3 mg dose compared to 1 mg dose” value (human, plasma, oral) was 3.5 fold and the Cmax (human, plasma, oral, 8 mg, Cohort 2, Day 8, N = 4, read-out: Observed Mean Cmax) was 16.6 ng/mL. The half-life (human, plasma, oral, 8 mg, range of means for 1, 3 and 8 mg doses, read-out: elimination half-life, on average) was 4.18 to 5.41 h, the Vd/F (human, plasma, oral, 16 mg, 18 doses, no emesis, read-out: mean volume of distribution (Vz/F)) was ~834 L and the AUC(0-t) (human, plasma, oral, 16 mg, Cohort 6, N = 18, excluding 3 doses with vomiting postdose, read-out: Observed Mean AUC0-24) was 165 ng·h/mL. For the same compound, the Cmax (human, plasma, oral, 16 mg, Cohort 6, N = 18, excluding 3 doses with vomiting postdose, read-out: Observed Mean Cmax) was 20.7 ng/mL, the half-life (human, plasma, oral, 16 mg, as given in the text, read-out: mean elimination half-life (T1/2) (converted)) was 5.58 h and the Vd/F (human, plasma, oral, range of means, 1 to 10 mg doses, read-out: apparent volume of distribution (Vz/F), on average) was 584 to 761 L. It also gave a concentration at 2 h (human, plasma, oral, 10 mg, Cohort 3 Day 8, read-out: plasma psilocin-d10 concentration of one subject at 2 hours postdose) of 18.7 ng/mL, a concentration at 4 h (human, plasma, oral, 10 mg, Cohort 3 Day 8, set ~20% below the 2-hour value, read-out: estimated plasma psilocin-d10 concentration of one subject at 4 hours postdose (missed sample)) of 14.9 ng/mL and an AUC(0-t) (human, plasma, po, 1 mg, 1 mg oral, Cohort 1 MDD, Day 1 and Day 22 pooled, read-out: AUC0-24 Mean (SD)) of 10 ng·h/mL. It also gave an AUC(0-inf) (human, plasma, po, 1 mg, 1 mg oral, Cohort 1 MDD, Day 1 and Day 22 pooled) of 10.2 ng·h/mL, an AUC(0-t) (human, plasma, po, 1 mg, 1 mg oral, Cohort 1 MDD, Day 1 and Day 22 pooled, read-out: AUClast Mean (SD)) of 10 ng·h/mL and a Cmax (human, plasma, po, 1 mg, 1 mg oral, Cohort 1 MDD, Day 1 and Day 22 pooled, read-out: Cmax Mean (SD)) of 1.69 ng/mL. The Cmax (human, plasma, po, 1 mg, 1 mg oral, Cohort 1 MDD, Day 1 and Day 22 pooled, read-out: Cmax Median) was 1.7 ng/mL, the half-life (human, plasma, po, 1 mg, 1 mg oral, Cohort 1 MDD, Day 1 and Day 22 pooled, read-out: T1/2 Mean (SD) (converted)) was 4.18 h and the Vd/F (human, plasma, po, 1 mg, 1 mg oral, Cohort 1 MDD, Day 1 and Day 22 pooled, read-out: Vz/F Mean (SD)) was 608 L. For the same compound, the AUC(0-t) (human, plasma, po, 3 mg, 3 mg oral, Cohort 2 NHV, Day 1, read-out: AUC0-24 Mean (SD)) was 34.5 ng·h/mL, the AUC(0-inf) (human, plasma, po, 3 mg, 3 mg oral, Cohort 2 NHV, Day 1) was 35.6 ng·h/mL and the AUC(0-t) (human, plasma, po, 3 mg, 3 mg oral, Cohort 2 NHV, Day 1, read-out: AUClast Mean (SD)) was 34.5 ng·h/mL. For the same compound, the Cmax (human, plasma, po, 3 mg, 3 mg oral, Cohort 2 NHV, Day 1, read-out: Cmax Mean (SD)) was 5.91 ng/mL, the Cmax (human, plasma, po, 3 mg, 3 mg oral, Cohort 2 NHV, Day 1, read-out: Cmax Median) was 5.87 ng/mL and the half-life (human, plasma, po, 3 mg, 3 mg oral, Cohort 2 NHV, Day 1, read-out: T1/2 Mean (SD) (converted)) was 4.76 h. For the same compound, the Vd/F (human, plasma, po, 3 mg, 3 mg oral, Cohort 2 NHV, Day 1, read-out: Vz/F Mean (SD)) was 584 L and the Cmax (human, plasma, po, 8 mg, 8 mg oral, Cohorts 2 and 3 NHV, Day 1 and Day 8 pooled, 2 subjects excluded, read-out: Cmax Mean (SD)) was 15 ng/mL.
